Test results taken from PMC10890502, “Prevention of Protease-Induced Degradation of Desmoplakin via Small Molecule Binding” (Journal of Personalized Medicine, 2024).
Numbering of substitutions follows the chain as printed. Structures can show the parent of a compound that is named as a salt. Where two headings read alike, the source gives them in different places.

What was measured:
Test in all cases: biochemical
sDSP (DSP178–627) [1] = target: T1, sDSP (DSP178–627) (Homo sapiens, UniProt P15924, S442F); design: FITC-sDSP S442F degradation by trypsin (1:50), fluorescence polarization after 60 min, per cent of protease-only control; settings: degradation rate of DSP S442F by trypsin; read-out: % of control remaining
T1 construct: gene DSP; N-terminal spectrin repeat/SH3 fragment, residues 178-627; pGEX-1 GST fusion cut with thrombin, E. coli BL21(DE3); fluorescein-5-maleimide label on exposed cysteines (C405, C524)
T1 sequence (P15924 178-627 S442F): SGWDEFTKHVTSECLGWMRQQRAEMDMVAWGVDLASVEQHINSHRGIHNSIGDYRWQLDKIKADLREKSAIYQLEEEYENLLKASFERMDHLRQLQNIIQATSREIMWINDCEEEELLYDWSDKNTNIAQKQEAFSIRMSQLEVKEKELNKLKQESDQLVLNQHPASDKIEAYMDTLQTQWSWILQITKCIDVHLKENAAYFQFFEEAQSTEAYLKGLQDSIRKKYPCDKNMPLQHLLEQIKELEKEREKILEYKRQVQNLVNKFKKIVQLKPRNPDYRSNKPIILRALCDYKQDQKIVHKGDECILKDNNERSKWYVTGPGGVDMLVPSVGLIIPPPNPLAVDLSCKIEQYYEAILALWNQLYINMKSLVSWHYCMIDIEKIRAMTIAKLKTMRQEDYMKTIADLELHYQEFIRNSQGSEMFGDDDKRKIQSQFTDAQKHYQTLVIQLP
Experimental: Fluorescence Polarization (FP) assays were conducted in […] format using a BioTek Synergy H4 plate reader with polarization capacity (Agilent; Savage, MD, USA). All samples were run at 25 °C using PBS pH 7.4, 1 mM DTT, 10 mM CaCl2, 5% DMSO, and […] FITC- DSP178–627, with 500 μM of each drug. Trypsin, chymotrypsin, or calpain at either 1:50, 1:50, or 1:20 concentration was added directly before data collection with an average void time of 2 min. Control experiments in each plate were conducted in triplicate and consisted of DSP178–627 + DMSO + protease as a positive control and DSP178–627 + DMSO + [compound left out] + protease as a negative control. Only plates that had functional positive and negative controls were used in data analysis. Samples were excited at 485 nm, and polarization was monitored at 528 nm. Data were collected at 5 min increments for 1–3 h. A mutation that partially occludes the DSP calpain cleavage site rescues DSP protein levels. We next assessed whether protease-dependent cleavage can also be blocked by small molecules. We screened 2496 FDA-approved drugs for their ability to prevent trypsin-dependent cleavage of sDSP S442F in our FP assay (Figure 3A). […] No change in fluorescence polarization after an hour is indicative of 0% protein degradation rate, as occurs in the [compound left out] positive control. […] (A) sDSP S442F degradation in the presence of trypsin plus 2496 compounds from the Cayman chemical “FDA library”. A degradation rate of 100% indicates the same desmoplakin degradation rate with and without the addition of 500 μM drug while a 0% rate indicates no degradation, as judged by fluorescent polarization values after 1 h. A trypsin-only control and a trypsin + [compound left out] control is indicated. Protection (red lines) was arbitrarily set between 33% and −10%. […] (B) Example of how the data in A was generated.

sDSP S507F = target: T2, sDSP S507F (Homo sapiens, UniProt P15924, S507F); design: FITC-sDSP degradation by calpain (1:20), fluorescence polarization after 60 min, per cent of calpain-only control; settings: degradation rate of DSP S507F by calpain; read-out: % of control remaining
T2 construct: gene DSP; N-terminal fragment, residues 178-627
Experimental: (§1) Fluorescence Polarization (FP) assays were conducted in […] format using a BioTek Synergy H4 plate reader with polarization capacity (Agilent; Savage, MD, USA). All samples were run at 25 °C using PBS pH 7.4, 1 mM DTT, 10 mM CaCl2, 5% DMSO, and […] FITC- DSP178–627, with 500 μM of each drug. Trypsin, chymotrypsin, or calpain at either 1:50, 1:50, or 1:20 concentration was added directly before data collection with an average void time of 2 min. Control experiments in each plate were conducted in triplicate and consisted of DSP178–627 + DMSO + protease as a positive control and DSP178–627 + DMSO + [compound left out] + protease as a negative control. Only plates that had functional positive and negative controls were used in data analysis. Samples were excited at 485 nm, and polarization was monitored at 528 nm. Data were collected at 5 min increments for 1–3 h. […] Therefore, we next tested whether these 62 compounds also prevent wildtype and variant DSP degradation in the presence of calpain. […] (A) Normalized fluorescent polarization of WT and sDSP variants in the presence of a 1:20 ratio of calpain plus 500 μM drug, as compared to calpain alone (black) (B) Identity and chemical structure of the six best-performing compounds.

sDSP (DSP178–627) [2] = target: T3, sDSP (DSP178–627) (Homo sapiens, UniProt P15924); design: FITC-sDSP degradation by calpain (1:20), fluorescence polarization after 60 min, per cent of calpain-only control; settings: degradation rate of DSP WT by calpain; read-out: % of control remaining
T3 construct: gene DSP; N-terminal spectrin repeat/SH3 fragment, residues 178-627; pGEX-1 GST fusion cut with thrombin, E. coli BL21(DE3); fluorescein-5-maleimide label on exposed cysteines (C405, C524)
T3 sequence (P15924 178-627): T1 sequence (P15924 178-627 S442F) with F265S
Experimental: as §1

sDSP (DSP178–627) [3] = target: T4, sDSP (DSP178–627) (Homo sapiens, UniProt P15924, R451G); design: FITC-sDSP degradation by calpain (1:20), fluorescence polarization after 60 min, per cent of calpain-only control; settings: degradation rate of DSP R451G by calpain; read-out: % of control remaining
T4 construct: gene DSP; N-terminal spectrin repeat/SH3 fragment, residues 178-627; pGEX-1 GST fusion cut with thrombin, E. coli BL21(DE3); fluorescein-5-maleimide label on exposed cysteines (C405, C524)
T4 sequence (P15924 178-627 R451G): T1 sequence (P15924 178-627 S442F) with F265S, R274G
Experimental: as §1

sDSP (DSP178–627) [4] = target: T1, sDSP (DSP178–627); design: FITC-sDSP degradation by calpain (1:20), fluorescence polarization after 60 min, per cent of calpain-only control; settings: degradation rate of DSP S442F by calpain; read-out: % of control remaining
Experimental: as §1

T2 sequence (P15924 whole entry S507F, the tested form may be a part): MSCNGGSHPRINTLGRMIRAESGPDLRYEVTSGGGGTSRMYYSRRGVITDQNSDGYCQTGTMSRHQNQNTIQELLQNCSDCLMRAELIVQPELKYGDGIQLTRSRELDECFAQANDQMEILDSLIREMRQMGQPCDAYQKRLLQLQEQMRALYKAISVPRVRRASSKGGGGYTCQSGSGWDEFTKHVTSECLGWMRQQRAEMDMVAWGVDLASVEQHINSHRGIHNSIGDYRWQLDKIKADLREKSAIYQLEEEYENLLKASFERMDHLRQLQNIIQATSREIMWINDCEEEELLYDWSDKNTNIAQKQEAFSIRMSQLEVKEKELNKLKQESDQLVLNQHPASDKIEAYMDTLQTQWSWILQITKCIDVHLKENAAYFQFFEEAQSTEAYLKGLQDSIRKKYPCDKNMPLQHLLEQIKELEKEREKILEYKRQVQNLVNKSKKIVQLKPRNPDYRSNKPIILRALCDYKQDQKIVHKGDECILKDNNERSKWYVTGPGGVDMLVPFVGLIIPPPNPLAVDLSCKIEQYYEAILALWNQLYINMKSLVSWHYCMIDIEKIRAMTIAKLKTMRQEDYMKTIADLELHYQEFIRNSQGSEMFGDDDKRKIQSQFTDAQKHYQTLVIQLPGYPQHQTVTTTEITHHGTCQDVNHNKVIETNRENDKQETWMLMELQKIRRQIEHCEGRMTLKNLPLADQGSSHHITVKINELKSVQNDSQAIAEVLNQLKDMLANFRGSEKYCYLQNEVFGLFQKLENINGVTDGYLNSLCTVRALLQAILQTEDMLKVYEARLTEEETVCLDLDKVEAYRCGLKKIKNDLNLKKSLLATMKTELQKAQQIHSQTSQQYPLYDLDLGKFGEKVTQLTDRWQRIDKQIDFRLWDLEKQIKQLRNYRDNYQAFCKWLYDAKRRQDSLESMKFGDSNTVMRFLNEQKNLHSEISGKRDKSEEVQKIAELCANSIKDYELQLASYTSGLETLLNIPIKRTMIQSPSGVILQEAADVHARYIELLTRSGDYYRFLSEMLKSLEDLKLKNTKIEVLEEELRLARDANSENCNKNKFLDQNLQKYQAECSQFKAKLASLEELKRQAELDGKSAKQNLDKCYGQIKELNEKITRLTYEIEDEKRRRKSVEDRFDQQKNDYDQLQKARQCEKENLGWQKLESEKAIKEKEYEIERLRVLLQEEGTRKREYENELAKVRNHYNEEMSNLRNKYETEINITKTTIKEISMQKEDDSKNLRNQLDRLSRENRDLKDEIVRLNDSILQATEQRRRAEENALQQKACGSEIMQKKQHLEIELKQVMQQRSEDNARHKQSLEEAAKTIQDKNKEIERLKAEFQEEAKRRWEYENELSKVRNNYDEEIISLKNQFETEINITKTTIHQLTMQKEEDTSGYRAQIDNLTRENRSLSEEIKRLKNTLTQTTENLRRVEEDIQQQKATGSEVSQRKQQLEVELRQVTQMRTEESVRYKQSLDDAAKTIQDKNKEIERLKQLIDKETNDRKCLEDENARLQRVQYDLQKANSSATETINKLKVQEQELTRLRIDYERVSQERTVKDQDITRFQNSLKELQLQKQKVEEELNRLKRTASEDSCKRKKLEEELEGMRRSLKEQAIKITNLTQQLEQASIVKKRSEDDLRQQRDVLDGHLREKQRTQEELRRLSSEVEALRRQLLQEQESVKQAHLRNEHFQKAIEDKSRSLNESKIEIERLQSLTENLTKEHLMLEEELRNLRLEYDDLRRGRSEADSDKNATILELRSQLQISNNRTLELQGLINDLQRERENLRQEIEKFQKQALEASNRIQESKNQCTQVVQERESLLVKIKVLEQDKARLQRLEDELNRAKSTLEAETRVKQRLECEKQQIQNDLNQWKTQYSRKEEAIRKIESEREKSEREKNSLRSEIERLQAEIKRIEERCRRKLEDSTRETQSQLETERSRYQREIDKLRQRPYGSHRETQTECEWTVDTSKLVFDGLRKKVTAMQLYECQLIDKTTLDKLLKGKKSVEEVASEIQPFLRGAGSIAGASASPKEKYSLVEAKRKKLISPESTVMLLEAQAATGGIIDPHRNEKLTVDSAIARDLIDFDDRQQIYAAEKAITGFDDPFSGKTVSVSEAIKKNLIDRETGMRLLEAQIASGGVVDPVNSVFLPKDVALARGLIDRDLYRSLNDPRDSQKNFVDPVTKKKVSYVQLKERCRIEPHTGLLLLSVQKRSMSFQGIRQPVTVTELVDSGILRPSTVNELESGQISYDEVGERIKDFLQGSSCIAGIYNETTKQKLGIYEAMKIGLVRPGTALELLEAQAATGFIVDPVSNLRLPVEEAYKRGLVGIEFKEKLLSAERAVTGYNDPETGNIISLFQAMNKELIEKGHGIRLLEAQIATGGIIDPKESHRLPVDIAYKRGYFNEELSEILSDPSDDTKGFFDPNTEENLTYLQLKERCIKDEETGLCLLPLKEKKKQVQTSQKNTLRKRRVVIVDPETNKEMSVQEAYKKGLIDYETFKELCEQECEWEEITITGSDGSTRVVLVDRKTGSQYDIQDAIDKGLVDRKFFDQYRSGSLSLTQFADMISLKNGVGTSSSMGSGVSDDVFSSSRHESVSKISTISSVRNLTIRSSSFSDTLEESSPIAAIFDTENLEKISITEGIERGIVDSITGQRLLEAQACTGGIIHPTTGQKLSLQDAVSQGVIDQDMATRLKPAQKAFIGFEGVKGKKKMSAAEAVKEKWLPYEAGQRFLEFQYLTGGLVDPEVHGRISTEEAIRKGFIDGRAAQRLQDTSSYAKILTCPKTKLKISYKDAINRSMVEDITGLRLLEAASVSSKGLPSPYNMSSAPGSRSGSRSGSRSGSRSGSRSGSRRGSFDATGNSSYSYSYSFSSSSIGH

Row | Structure (SMILES) | remaining activity at 500 µM (sDSP (DSP178–627) [1]) [%] | remaining activity at 500 µM (sDSP S507F) [%] | remaining activity at 500 µM (sDSP (DSP178–627) [2]) [%] | remaining activity at 500 µM (sDSP (DSP178–627) [3]) [%] | remaining activity at 500 µM (sDSP (DSP178–627) [4]) [%]
1 | C=C(c1ccc(C(=O)O)cc1)c1cc2c(cc1C)C(C)(C)CCC2(C)C [Bexarotene] | 26 | 4 | 81 | 39 | 84
2 | NC1(Cc2ccc(Cl)cc2)CCN(c2ncnc3[nH]ccc23)CC1 [CCT128930] | 20 | 20 | 54 | 32 | 86
3 | COc1ccc(-c2cc(=O)c3c(O)cc(O)cc3o2)cc1O [Diosmetin] | 18 | 0 | 84 | 30 | 73
4 | CC/C=C\C/C=C\C/C=C\C/C=C\C/C=C\C/C=C\CCC(=O)O [Docosahexaenoic Acid] | 32 | 104 | -12 | 118 | -19
5 | CCCCc1oc2ccc(NS(C)(=O)=O)cc2c1C(=O)c1ccc(OCCCN(CCCC)CCCC)cc1 [Dronedarone HCl] | 23 | 25 | 143 | 20 | 0
6 | CCCCCCCCc1ccc(CCC(N)(CO)CO)cc1 [Fingolimod] | -1 | 32 | 35 | -13 | 70
7 | CCN(CC)CC#CCOC(=O)C(O)(c1ccccc1)C1CCCCC1 (stereo not shown) [Oxybutynin chloride] | 24 | 77 | 91 | 31 | -5
8 | Fc1ccc([C@@H]2CCNC[C@H]2COc2ccc3c(c2)OCO3)cc1 [Paraxetine] | 20 | 133 | -8 | 26 | -3
9 | CCCCCCCCCCCCOS(=O)(=O)O [SDS] | 18 | -30 | 24 | -20 | 21
10 | CCCCCCCCCCCCCCCC(=O)NCCO [palmitoylethanolamide] | 26 | 3 | 22 | 8 | -3

Continued, values first:

Row | remaining activity at 500 µM (sDSP (DSP178–627) [1]) [%] | remaining activity at 500 µM (sDSP S507F) [%] | remaining activity at 500 µM (sDSP (DSP178–627) [2]) [%] | remaining activity at 500 µM (sDSP (DSP178–627) [3]) [%] | remaining activity at 500 µM (sDSP (DSP178–627) [4]) [%] | Structure (SMILES)
11 | 32 | 24 | 35 | 34 | 23 | CNC(=O)c1c(F)cccc1Nc1nc(Nc2cc3c(cc2OC)CCN3C(=O)CN(C)C)nc2[nH]ccc12 [GSK1838705A]
12 | -3 | 108 | -6 | 4 | 62 | Cc1ccc(NC(=O)c2ccc(CN3CCN(C)CC3)cc2)cc1Nc1nccc(-c2cccnc2)n1 [Imatinib]
13 | 18 | 84 | 67 | 15 | -40 | Cn1cc(-c2ccc(F)c(C(F)(F)F)c2)nc1C1CCN(c2ncnc3[nH]ncc23)CC1 [LY2584702]
14 | 32 | 4 | 118 | 40 | 62 | O=C(NC1CCN(CCCCC2(C(=O)NCC(F)(F)F)c3ccccc3-c3ccccc32)CC1)c1ccccc1-c1ccc(C(F)(F)F)cc1 [Lomitapide]
15 | 1 | 107 | -8 | -41 | 101 | CN1CCN(C2=Nc3ccccc3Oc3ccc(Cl)cc32)CC1 [Loxipine Succinate]
16 | 31 | 34 | 48 | 38 | 87 | CC(=O)O[C@H]1C(=O)[C@@]2(C)[C@H]([C@H](OC(=O)c3ccccc3)[C@]3(O)C[C@H](OC(=O)[C@H](O)[C@@H](NC(=O)c4ccccc4)c4ccccc4)C(C)=C1C3(C)C)[C@]1(OC(C)=O)CO[C@@H]1C[C@@H]2O [Taxol]
17 | 32 | 31 | 30 | 33 | 26 | CCCCc1ncc(/C=C(\Cc2cccs2)C(=O)O)n1Cc1ccc(C(=O)O)cc1 [eprosarten mesylate]
